Data published in patent publication US20090196869A1, “ANTITUMOR COMBINATIONS CONTAINING TAXANE DERIVATIVES” (SANOFI-AVENTIS, priority 2006, published 2009).

Key:
[1] = test system: Human breast carcinoma UISO-BCA-1; test: Antitumor activity in Human Mammary UISO-BCA-1 xenografted in nude mice (3-arm dose-response); assay type: in vivo; conditions: for sensitivity of the UISO-BCA-1 xenograft to the agent: characterisation of the tumor model, monotherapy; for (T-C) days / CR / TFS d121 / log cell kill: acetocyclopropyl taxotere alone, day 17, 21, 25
Method: This efficacy may be quantified, for example, by the log10 cells killed, which is determined according to the following formula: […]
A product is considered to be active if log10 cells killed is greater than or equal to 0.7. A product is considered to be very active if log10 cells killed is greater than 2.8.
The combination, used at its own maximum tolerated dose, in which each of the constituents will be present at a dose generally not exceeding its maximum tolerated dose, will manifest therapeutic synergy when the log10 cells killed is greater than the value of the log10 cells killed of the best constituent when it is administered alone.
(§1) The animals subjected to the experiment, generally mice, are subcutaneously grafted bilaterally with 30 to 60 mg of a tumor fragment on day 0. The animals bearing tumors are mixed before being subjected to the various treatments and controls. In the case of treatment of advanced tumors, tumors are allowed to develop to the desired size, animals having insufficiently developed tumors being eliminated. The selected animals are distributed at random to undergo the treatments and controls. […] The different animal groups are weighed 3 or 4 times a week until the maximum weight loss is reached, and the groups are then weighed at least once a week until the end of the trial.
The tumors are measured 2 or 3 times a week until the tumor reaches approximately 2 g, or until the animal dies if this occurs before the tumor reaches 2 g. The animals are autopsied when sacrificed.
The tumor model used to evaluate each drug combination was selected, in general, on the basis of its responsiveness to each of the agents when used as monotherapy. Using i.v. intermittent schedules, full dose response trials were conducted for each single agent and each combination. In the present case, the selected tumor was a Human breast carcinoma UISO-BCA-1 derived from a malignant pleural effusion. The primary tumor was well-differentiated infiltrating ductal carcinoma of the breast. Radiotherapy post mastectomy was practiced. Three years after, chemotherapy to treat a left supraclavicular mass was done (10 courses with cytoxan, methotrexate, 5-Fu and Tamoxifen). […] This tumor model was established in nude mice from a 2.10^7 cell implant, and maintained by serial sc passage as tumor fragment.

[2] = Toxicity (drug deaths, body weight loss, highest non-toxic dose) in tumor-bearing nude mice; assay type: in vivo; conditions: for % bwl at nadir / Drug deaths: acetocyclopropyl taxotere alone, day 17, 21, 25
Method: as §1

[3] = iv 12.4 mg/kg/day (total 37.2 mg/kg)
[4] = iv 20.0 mg/kg/day (total 60.0 mg/kg)
[5] = iv 32.3 mg/kg/day (total 96.9 mg/kg)
[6] = iv 52.1 mg/kg/day (total 156.3 mg/kg)
[7] = single agent, iv day 17, 21, 25

O=c1[nH]cc(F)c(=O)[nH]1 [5-Fluorouracil, reference compound]
sensitivity of the UISO-BCA-1 xenograft to the agent [1]: sensitive

CC(=O)O[C@H]1C(=O)[C@]23C[C@H]2C[C@H]2OC[C@@]2(OC(C)=O)[C@H]3[C@H](OC(=O)c2ccccc2)[C@]2(O)CC(OC(=O)[C@H](O)C(NC(=O)OC(C)(C)C)c3ccccc3)C(C)=C1C2(C)C (some centres unmarked) [acetocyclopropyl taxotere]
(T-C) days [1, 3]: 1.8 days
CR [1, 3]: 0/8
TFS d121 [1, 3]: 0/8
log cell kill [1, 3]: 0.1
(T-C) days [1, 4]: 6.0 days
CR [1, 4]: 0/8
TFS d121 [1, 4]: 0/8
log cell kill [1, 4]: 0.4
(T-C) days [1, 5]: 20.8 days
CR [1, 5]: 0/8
TFS d121 [1, 5]: 0/8
log cell kill [1, 5]: 1.3
CR ([1]; iv 32.3 mg/kg/day (total 96.9 mg/kg), listed as acetyl cyclopropyl docetaxel): no regression
sensitivity of the UISO-BCA-1 xenograft to the agent [1]: sensitive
% bwl at nadir [2, 3]: 0.5%
Drug deaths [2, 3]: 0/8
% bwl at nadir [2, 4]: 0.5%
Drug deaths [2, 4]: 0/8
% bwl at nadir [2, 5]: 5.2%
Drug deaths [2, 5]: 0/8
% bwl at nadir [2, 6]: 7.2%
Drug deaths [2, 6]: 2/8
highest non-toxic dose [2, 7]: 32.3 mg/kg per injection
highest non-toxic dose, total dose [2, 7]: 96.9 mg/kg

O=P1(N(CCCl)CCCl)NCCCO1 (centres unmarked) [cyclophosphamide, reference compound]
sensitivity of the UISO-BCA-1 xenograft to the agent [1]: poorly sensitive

CC(=O)O[C@@]12CO[C@@H]1C[C@H](O)[C@@]1(C)C(=O)[C@H](O)C3=C(C)[C@@H](OC(=O)[C@H](O)[C@@H](NC(=O)OC(C)(C)C)c4ccccc4)C[C@@](O)([C@@H](OC(=O)c4ccccc4)[C@H]21)C3(C)C [docetaxel, reference compound]
sensitivity of the UISO-BCA-1 xenograft to the agent [1]: resistant

COc1cccc2c1C(=O)c1c(O)c3c(c(O)c1C2=O)C[C@@](O)(C(=O)CO)C[C@@H]3O[C@H]1C[C@H](N)[C@H](O)[C@H](C)O1 [doxorubicin, reference compound]
sensitivity of the UISO-BCA-1 xenograft to the agent [1]: poorly sensitive

CC[C@]1(O)C[C@H]2CN(CCc3c([nH]c4ccccc34)[C@@](C(=O)OC)(c3cc4c(cc3OC)N(C=O)[C@H]3[C@@](O)(C(=O)OC)[C@H](OC(C)=O)[C@]5(CC)C=CCN6CC[C@]43[C@@H]65)C2)C1 [vincristine, reference compound]
sensitivity of the UISO-BCA-1 xenograft to the agent [1]: poorly sensitive
